Tests used:
human CYP1A2 = test: Reporter assay in HepG2 cells: secreted alkaline phosphatase (SEAP) activity, which reflects CYP1A2; assay type: cell-based; conditions: for reporter activity (SEAP) compared with DMSO: expression vector K, L or P (only region neighboring CYP1A2); for reporter activity (SEAP) compared with DMSO / reporter activity (SEAP): 40 hours; for reporter activity (SEAP): expression vector M; for SEAP activity compared with the group where DMSO alone was added: reporter vectors A to J, N, O, T and U, 40 hours after addition, 3-MC 1 μM, BNF 10 μM
Experimental: (§1) Each of the obtained reporter vector comprising the transcriptional regulatory region of human CYP1A1 and CYP1A2 and reporter vectors comprising the transcriptional regulatory region partially deleted was transiently expressed in HepG2 cells (purchased from RIKEN) by using a transfection reagent (FuGene6, Roche), and 40 hours after the addition of a drug dissolved in DMSO or DMSO alone, the activity of a secreted alkaline phosphatase (SEAP), which reflects CYP1A2, and the activity of a luciferase (Luc), which reflects CYP1A1, were measured. LumiPhos 530 (Lumigen Inc.) was used as a substrate for the measurement of the SEAP activity.
In the same manner as that in 4, the expression vectors K to M and P to S obtained above were transiently expressed in HepG2 cells by using the gene transfer reagent, and 40 hours after the addition of a drug dissolved in DMSO or DMSO alone, activity of a secreted alkaline phosphatase (SEAP) was measured (FIG. 5).
(§2) In the same manner as that in 4, each of the expression vectors A to J, N, O, T and U was transiently expressed in HepG2 cells by using the transfection reagent, and 40 hours after the addition of a drug dissolved in DMSO or DMSO alone, activity of a secreted alkaline phosphatase (SEAP), which reflects CYP1A2, and activity of a luciferase (Luc), which reflects CYP1A1, were measured.

human CYP1A1 = test: Reporter assay in HepG2 cells: luciferase (Luc) activity, which reflects CYP1A1; conditions: reporter vectors A to J, N, O, T and U, 40 hours after addition, 3-MC 1 μM, BNF 10 μM
Experimental: Each of the obtained reporter vector comprising the transcriptional regulatory region of human CYP1A1 and CYP1A2 and reporter vectors comprising the transcriptional regulatory region partially deleted was transiently expressed in HepG2 cells (purchased from RIKEN) by using a transfection reagent (FuGene6, Roche), and 40 hours after the addition of a drug dissolved in DMSO or DMSO alone, the activity of a secreted alkaline phosphatase (SEAP), which reflects CYP1A2, and the activity of a luciferase (Luc), which reflects CYP1A1, were measured. LumiPhos 530 (Lumigen Inc.) was used as a substrate for the measurement of the SEAP activity. The Luc activity was measured by using Luciferase Assay System (Promega) (FIG. 3).
as §2

[1] = system: transcriptional regulatory region of human CYP1A1 and CYP1A2; test: Reporter assay in HepG2 cells with dual reporter vectors, reporter (SEAP/Luc) not distinguished in the statement; conditions: for enhancement of expression of the reporter: reporter vector T (comprises XRE E8, lacks 1535 to 2866); for induction of expression of the reporter: reporter vector U (does not comprise XRE E8); for reporter activities compared with DMSO: reporter vectors E1 to E5 (each one XRE deleted), E3 slightly lower; for enhancement of the expression of the reporter: reporter vectors comprising nucleotide numbers 1535 to 2867 in SEQ ID NO: 1 (XREs densely exist), HepG2
Experimental: as §1
A reporter assay was performed by using the obtained vectors.

Compound | reporter activity (SEAP) compared with DMSO (human CYP1A2) [fold] | reporter activity (SEAP) (human CYP1A2) | SEAP activity compared with the group where DMSO alone was added (human CYP1A2) | Luc activity compared with the group where DMSO alone was added (human CYP1A1) | enhancement of expression of the reporter [1] | induction of expression of the reporter [1] | reporter activities compared with DMSO [1] | enhancement of the expression of the reporter [1]
Cc1ccc2cc3c(ccc4ccccc43)c3c2c1CC3 [3-MC, 3-methylcholanthrene] | ~1 | at the background level | increase in the SEAP activity and Luc activity was observed | increase in the SEAP activity and Luc activity was observed | strong enhancement of expression | did not show the induction | several folds to 10 or more folds higher | intense enhancement of the expression
O=c1cc(-c2ccccc2)oc2ccc3ccccc3c12 [BNF, β-naphthoflavone] | ~1 | at the background level | increase in the SEAP activity and Luc activity was observed | increase in the SEAP activity and Luc activity was observed | strong enhancement of expression | did not show the induction | several folds to 10 or more folds higher | intense enhancement of the expression
COc1ccc2[nH]c([S+]([O-])Cc3ncc(C)c(OC)c3C)nc2c1 (centres unmarked) [omeprazole] | – | – | – | – | – | – | several folds to 10 or more folds higher | –
